Test results taken from US4220577A, “Iodopropargyl pyridyl and picolinyl ethers and thioethers as paint fungicides” (Givaudan Corporation, priority 1979, dated 1980).

test system: Aureobasidium pullulans (strain 1); test: Antifungal activity on painted surfaces, strain 1; format: cell-based; set-up: key to Surface Growth: 0: No growth; 1: Slight growth; 2: Moderate growth; 3: Heavy growth; settings: 0.25% in vinyl acetate latex paint, Strain 1, three weeks
Description: (§1) Any antifungal agent which can be used to prevent mildew on painted surfaces must be effective against Aureobasidium pullulans, the organism which is primarily responsible for mildew on painted surfaces. The effectiveness of the novel compounds was tested by incorporating the compound into an exterior latex paint, applying the paint to a surface, and testing the ability of the painted surface to prevent the growth of Aureobasidium pullulans. The tests were run as described below. The novel compounds were incorporated into an exterior vinyl acetate latex paint by mulling the compound into the paint. The compounds were tested in the paints at levels of 0.25% and 0.5%. One coat of this paint was applied to each side of a piece of Whatman #30 filter paper. Two one-inch squares were cut from the filter paper. Each square was centered on the agar surface of separate Petri dishes containing malt agar. One square was inoculated with a suspension of Aureobasidium pullulans (strain 1) which was an in-house strain used for routine antimicrobial testing. The second square was inoculated with a suspension of Aureobasidium pullulans (strain 2) which was grown from a culture obtained from the surface of a mildew infested panel. Squares painted with the same exterior vinyl acetate latex paint, but without the novel compounds of this invention, were run in parallel. The Petri dishes were then incubated at 27° C. and at greater than 90% humidity for a three week period and observed for zones of inhibition and surface growth.

Compound | Surface Growth | Zone of Inhibition
IC#CCSc1cccnc1 [drawing 15] | 0 | 2 (6-10 mm)
IC#CCOCc1cccnc1 [drawing 16] | 0 | 4 (16-20 mm)
IC#CCSc1ccncc1 [drawing 18] | 0 | –

same assay, conditions: 0.5% in vinyl acetate latex paint, Strain 1, three weeks

Compound | Surface Growth | Zone of Inhibition
IC#CCSc1cccnc1 [drawing 15] | 0 | 3 (11-15 mm)
IC#CCOCc1cccnc1 [drawing 16] | 0 | 5 (>20 mm)
IC#CCOc1ccncc1 [drawing 17] | 0 | 2 (6-10 mm)
IC#CCSc1ccncc1 [drawing 18] | 0 | 1 (1-5 mm)

test system: Aureobasidium pullulans (strain 2); test: Antifungal activity on painted surfaces, strain 2; format: cell-based; set-up: key to Surface Growth: 0: No growth; 1: Slight growth; 2: Moderate growth; 3: Heavy growth; key to Zone of Inhibition: 0: no zone; 1-5 mm; 2: 6-10 mm; 3: 11-15 mm; 4: 16-20 mm; 5: >20 mm; settings: 0.25% in vinyl acetate latex paint, Strain 2, three weeks
Description: as §1

Compound | Surface Growth | Zone of Inhibition
IC#CCSc1cccnc1 [drawing 15] | 0 | 0
IC#CCOCc1cccnc1 [drawing 16] | 0 | 3 (11-15 mm)
IC#CCSc1ccncc1 [drawing 18] | 0 | 0

same assay, conditions: 0.5% in vinyl acetate latex paint, Strain 2, three weeks

Compound | Surface Growth | Zone of Inhibition
IC#CCSc1cccnc1 [drawing 15] | 0 | 2 (6-10 mm)
IC#CCOCc1cccnc1 [drawing 16] | 0 | 4 (16-20 mm)
IC#CCOc1ccncc1 [drawing 17] | 0 | 1 (1-5 mm)
IC#CCSc1ccncc1 [drawing 18] | 0 | 0

test system: Aureobasidium pullulans (strain 2); test: Antifungal activity of painted birch blades after exposure to heat and light; format: cell-based; set-up: key to Surface Growth: 0: No growth; 1: Slight growth; 2: Moderate growth; 3: Heavy growth; settings: 0.25%, after light (300-400 nm) and heat (40° C.) four weeks
Description: Successful paint fungicides must be stable when exposed to the elements such as heat and light. Such stability was tested in the laboratory by exposing painted sticks to heat and light. The compounds of this invention were incorporated into an exterior vinyl acetate latex paint as described in Example XXI. Birch blades (tongue depressors) were painted (two coats) and continuously exposed to light (wavelength 300-400 nm) and heat (40° C.) for four consecutive weeks. At the end of the exposure time, one-inch squares of the painted birch blades were cut and tested according to the procedure of Example XXI, using strain 2.

Compound | Surface Growth
IC#CCOc1cccnc1 [drawing 19] | 0
Cc1ccc(OCC#CI)cn1 [drawing 20] | 0
Clc1ncccc1OCC#CI [drawing 21] | 0
Nc1ncccc1OCC#CI [drawing 23] | 1
IC#CCSc1cccnc1 [drawing 24] | 3
IC#CCOCc1cccnc1 [drawing 25] | 0
IC#CCOc1ccncc1 [drawing 26] | 2
IC#CCOc1ccccc1 [reference compound] | 3

same assay, conditions: 0.5%, after light (300-400 nm) and heat (40° C.) four weeks

Compound | Surface Growth | Zone of Inhibition
IC#CCOc1cccnc1 [drawing 19] | 0 | 1 (1-5 mm)
Cc1ccc(OCC#CI)c(Cl)n1 [drawing 22] | 0 | –
Nc1ncccc1OCC#CI [drawing 23] | 0 | –
IC#CCSc1cccnc1 [drawing 24] | 2 | –
IC#CCOCc1cccnc1 [drawing 25] | 0 | 1 (1-5 mm)
IC#CCOc1ccncc1 [drawing 26] | 2 | –
IC#CCOc1ccccc1 [reference compound] | 2 | –
